Laboratory results published in US6413517B1, “Identification of broadly reactive DR restricted epitopes” (Epimmune, Inc., priority 1997, dated 2002).
Where two headings read alike, the source gives them in different places.

Tests used:
[1] = test system: panel of purified HLA DR molecules; format: binding, human
DRB1*1501 (DR2w2b) = molecular target: T1, DRB1*1501 (DR2w2b) (Homo sapiens, UniProt P01903+P01911); assay: biochemical; format: binding
T1 construct: expressed in transfected cells; host or cells: transfected fibroblasts L466.1

DRB1*0301 (DR3w17) [2] = molecular target: T2, DRB1*0301 (DR3w17) (Homo sapiens, UniProt P01903+P01911, A100K/A102G/A103R/A169T/F55Y/I96L/K41T/L162R/M171V/P40S/Q125H/Q178H/Q39Y/R42S/S66N/T106N/T262R/W38E/Y61H); assay: biochemical; settings: Binding Capacity (IC50% nM) DR3
DRB1*0701 (DR7) = molecular target: T3, DRB1*0701 (DR7) (Homo sapiens, UniProt P01903+P01911, A100R/A102G/A103Q/D57E/D86V/E43K/F76Y/K127E/L162R/M171V/P40G/Q125H/Q99D/R33Q/R42Y/R54Q/S133A/S66F/T210M/V115G/Y107V/Y59L/Y89S); assay: biochemical; format: binding; settings: Binding Capacity (IC 50% nM) DR1,4,7 DR7
T3 construct: Epstein-Barr virus (EBV) transformed homozygous cell lines were used as sources; endogenous in cells; host or cells: PITOUT (EBV-transformed homozygous B cell line)

DRB1*0301 (DR3w17) [3] = molecular target: T2, DRB1*0301 (DR3w17); settings: read-out: Binding Capacity (IC 50% nM) Other Alleles DR3
DRB1*0405 (DR4w15) = molecular target: T4, DRB1*0405 (DR4w15) (Homo sapiens, UniProt P01903+P01911, A100R/A169T/D86S/F76Y/I96L/K127E/L162R/M171V/N62H/P40V/Q125Y/R42H/S133A/S149N/S66Y/V115G/V209L/W38E); assay: biochemical; format: binding; settings: Binding Capacity (IC 50% nM) Other Alleles DR4w15
T4 construct: Epstein-Barr virus (EBV) transformed homozygous cell lines were used as sources; endogenous in cells; host or cells: KT3 (EBV-transformed homozygous B cell line)

DRB1*1101 (DR5w11) = molecular target: T5, DRB1*1101 (DR5w11) (Homo sapiens, UniProt P01903+P01911, A100R/A169T/A87E/I96F/K41T/L162R/M171V/P40S/Q125H/Q178H/Q39Y/Q99D/R42S/S66Y/T262R/V115G/W38E); assay: biochemical; format: binding
T5 construct: Epstein-Barr virus (EBV) transformed homozygous cell lines were used as sources; endogenous in cells; host or cells: SWEIG (EBV-transformed homozygous B cell line)

DRB1*0101 (DR1) = molecular target: T6, DRB1*0101 (DR1) (Homo sapiens, UniProt P01903+P01911, A100R/D57E/F55L/F60I/F76Y/I96L/L162R/M171V/P40L/Q125E/R42F/V115G/Y59C); assay: biochemical; format: binding; settings: Binding Capacity (IC 50% nM) DR1,4,7 DRB1
T6 construct: Epstein-Barr virus (EBV) transformed homozygous cell lines were used as sources; endogenous in cells; host or cells: LG2 (EBV-transformed homozygous B cell line)

DRB1*1302 (DR6w19) = molecular target: T7, DRB1*1302 (DR6w19) (Homo sapiens, UniProt P01903+P01911, A100E/A169T/K41T/L162R/M171V/P40S/Q125H/Q178H/Q39Y/Q99D/R42S/S66N/T262R/V115G/W38E/Y61H); assay: biochemical; format: binding
T7 construct: Epstein-Barr virus (EBV) transformed homozygous cell lines were used as sources; the source of Class II molecules the EBV transformed homozygous cell line H0301; endogenous in cells; host or cells: H0301 (EBV-transformed homozygous B cell line)

DRB1*0901 (DR9) = molecular target: T8, DRB1*0901 (DR9) (Homo sapiens, UniProt P01903+P01911, A100R/A103E/D57H/D86V/F55Y/F60I/F76Y/I96F/K127E/L162R/M171V/P40D/Q125H/Q99R/R33Q/R42F/S133A/S66N/T210M/V115G/W38K/Y107V/Y59G/Y89S); assay: biochemical; format: binding; settings: Binding Capacity (IC 50% nM) Other Alleles DR9
T8 construct: Epstein-Barr virus (EBV) transformed homozygous cell lines were used as sources; endogenous in cells

DRB1*1201 (DR5w12) = molecular target: T9, DRB1*1201 (DR5w12) (Homo sapiens, UniProt P01903+P01911, A100R/A169T/D57E/D86V/F55L/H45Y/K41T/L162R/M171V/P40S/Q125H/Q178H/Q39Y/Q99D/R42G/S66L/T262R/V114A/V67L/W38E/Y59H/Y61H/Y89S); assay: biochemical; format: binding
T9 construct: Epstein-Barr virus (EBV) transformed homozygous cell lines were used as sources; endogenous in cells; host or cells: Herluf (EBV-transformed homozygous B cell line)

DRB1*0802 (DR8w2) = molecular target: T10, DRB1*0802 (DR8w2) (Homo sapiens, UniProt P01903+P01911, A100R/A103L/A169T/F76Y/H45Y/I96F/K41T/L162R/M171V/P40S/Q125H/Q178H/Q39Y/Q99D/R218S/R42G/S66Y/V115G/W38E); assay: biochemical; format: binding
T10 construct: Epstein-Barr virus (EBV) transformed homozygous cell lines were used as sources; endogenous in cells; host or cells: OLL (EBV-transformed homozygous B cell line)

DRB1*0401 (DR4w4) = molecular target: T11, DRB1*0401 (DR4w4) (Homo sapiens, UniProt P01903+P01911, A100K/A169T/F76Y/I96L/K127E/L162R/M171V/N62H/P40V/Q125Y/R42H/S133A/S149N/S66Y/V115G/V209L/W38E); assay: biochemical; format: binding; settings: Binding Capacity (IC 50% nM) DR1,4,7 DR4w4
T11 construct: Epstein-Barr virus (EBV) transformed homozygous cell lines were used as sources; endogenous in cells; host or cells: PREISS (EBV-transformed homozygous B cell line)

DRB5*0101 (DR2w2a) = molecular target: T12, DRB5*0101 (DR2w2a) (Homo sapiens, UniProt P01903+Q30154); assay: biochemical; format: binding
T12 construct: Epstein-Barr virus (EBV) transformed homozygous cell lines were used as sources; endogenous in cells; host or cells: GM3107 (EBV-transformed homozygous B cell line)

[4] = read-out: Binding Capacity (IC 50% nM) Other Alleles DR2w2b
[5] = Binding Capacity (IC50% nM) DR5w12
[6] = read-out: Binding Capacity (IC 50% nM) Other Alleles DR5w12

T5 sequence (P01903 26-254, other chains not shown): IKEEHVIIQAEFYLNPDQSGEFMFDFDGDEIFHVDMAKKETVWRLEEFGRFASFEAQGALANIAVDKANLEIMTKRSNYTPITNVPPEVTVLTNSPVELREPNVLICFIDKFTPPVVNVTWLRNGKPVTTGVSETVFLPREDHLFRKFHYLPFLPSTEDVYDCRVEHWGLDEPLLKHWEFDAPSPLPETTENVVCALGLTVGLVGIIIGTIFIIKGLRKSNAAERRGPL

CC[C@H](C)[C@H](NC(=O)[C@H](CO)NC(=O)[C@@H](N)CO)C(=O)N[C@H](C(=O)N[C@@H](Cc1ccccc1)C(=O)NCC(=O)N[C@@H](C)C(=O)N[C@@H](Cc1ccccc1)C(=O)N1CCC[C@H]1C(=O)N[C@@H](CO)C(=O)N[C@@H](CC(C)C)C(=O)N[C@@H](Cc1c[nH]cn1)C(=O)N[C@@H](CO)C(=O)NCC(=O)N[C@@H](CS)C(=O)N[C@@H](CS)C(=O)O)[C@@H](C)CC [Peptide 1136.38]
Total Alleles Bound [1]: 6

CC(C)C[C@H](NC(=O)[C@H](CC(C)C)NC(=O)CNC(=O)[C@H](C)NC(=O)[C@H](CC(C)C)NC(=O)[C@@H](NC(=O)[C@H](CO)NC(=O)[C@@H](NC(=O)[C@H](C)NC(=O)[C@H](CC(C)C)NC(=O)[C@H](CCCCN)NC(=O)[C@H](Cc1ccc(O)cc1)NC(=O)[C@H](CCCCN)NC(=O)[C@H](CO)NC(=O)[C@@H](N)CCCCN)[C@@H](C)O)C(C)C)C(=O)O [Peptide 1188.16]
IC50 (DRB1*1501 (DR2w2b); [4]): > 1000 nM
IC50 (DRB1*0301 (DR3w17) [2]): > 10000 nM
IC50 (DRB1*0701 (DR7)): < 1000 nM
IC50 (DRB1*0301 (DR3w17) [3]): > 1000 nM
IC50 (DRB1*0405 (DR4w15)): < 1000 nM
IC50 (DRB1*1101 (DR5w11); Binding Capacity (IC 50% nM) Other Alleles DR5w11): < 1000 nM
IC50 (DRB1*0101 (DR1)): < 1000 nM
IC50 (DRB1*1302 (DR6w19); Binding Capacity (IC 50% nM) Other Alleles DR6w19): < 1000 nM
IC50 (DRB1*0901 (DR9)): < 1000 nM
IC50 (DRB1*1201 (DR5w12); [5]): > 10000 nM
IC50 (DRB1*1201 (DR5w12); [6]): > 1000 nM
IC50 (DRB1*0802 (DR8w2); Binding Capacity (IC 50% nM) Other Alleles DR8w2): < 1000 nM
IC50 (DRB1*0401 (DR4w4)): < 1000 nM
IC50 (DRB5*0101 (DR2w2a); Binding Capacity (IC 50% nM) Other Alleles DR2w2a): < 1000 nM

CC(C)[C@H](NC(=O)[C@H](CO)NC(=O)[C@@H](NC(=O)[C@H](C)NC(=O)[C@H](CO)NC(=O)[C@H](CO)NC(=O)[C@H](C)NC(=O)[C@H](C)NC(=O)[C@H](Cc1ccc(O)cc1)NC(=O)[C@@H](NC(=O)[C@H](CO)NC(=O)CNC(=O)[C@H](CCC(N)=O)NC(=O)[C@@H]1CCCN1C(=O)[C@@H](N)CCC(=O)O)[C@@H](C)O)[C@@H](C)O)C(=O)N[C@@H](CC(=O)O)C(=O)O [Peptide 1136.71]
IC50 (DRB1*1501 (DR2w2b); Binding Capacity (IC50% nM) DR2w2b): > 10000 nM
IC50 (DRB1*1501 (DR2w2b); [4]): > 1000 nM
IC50 (DRB1*0301 (DR3w17) [2]): > 10000 nM
IC50 (DRB1*0701 (DR7)): < 1000 nM
IC50 (DRB1*0301 (DR3w17) [3]): > 1000 nM
IC50 (DRB1*0405 (DR4w15)): < 1000 nM
IC50 (DRB1*1101 (DR5w11); read-out: Binding Capacity (IC 50% nM) Other Alleles DR5w11): > 1000 nM
IC50 (DRB1*0101 (DR1)): < 1000 nM
IC50 (DRB1*1302 (DR6w19); Binding Capacity (IC50% nM) DR6w19): > 10000 nM
IC50 (DRB1*1302 (DR6w19); read-out: Binding Capacity (IC 50% nM) Other Alleles DR6w19): > 1000 nM
IC50 (DRB1*0901 (DR9)): < 1000 nM
IC50 (DRB1*1201 (DR5w12); [5]): > 10000 nM
IC50 (DRB1*1201 (DR5w12); [6]): > 1000 nM
IC50 (DRB1*0802 (DR8w2); Binding Capacity (IC50% nM) DR8w2): > 10000 nM
IC50 (DRB1*0802 (DR8w2); read-out: Binding Capacity (IC 50% nM) Other Alleles DR8w2): > 1000 nM
IC50 (DRB1*0401 (DR4w4)): < 1000 nM
IC50 (DRB5*0101 (DR2w2a); read-out: Binding Capacity (IC 50% nM) Other Alleles DR2w2a): > 1000 nM
